Source: ChEMBL document CHEMBL2163324, “Function of the D-alanine:D-alanine ligase lid loop: a molecular modeling and bioactivity study” (J Med Chem, 2012)

What was measured:
Escherichia coli [1] = assay: Inhibition of Escherichia coli DdlB at 500 uM after 20 mins by malachite green staining-based colorimetric assay
[2] = Inhibition of Escherichia coli DdlB after 20 mins by malachite green staining-based colorimetric assay
[3] = Competitive inhibition of Escherichia coli DdlB after 20 mins by malachite green staining-based colorimetric assay in presence of ATP
Escherichia coli [4] = assay: Inhibition of Escherichia coli DdlB at 250 uM after 20 mins by malachite green staining-based colorimetric assay

Row | SMILES | inhibition (Escherichia coli [1]) | IC50 ([2]; read-out: IC50) | IC50 [2] | Ki [3] | inhibition (Escherichia coli [4])
1 | O=C1NC(=O)C(=C(O)Nc2ccccc2)C(=O)N1 | 63% | 611 µM |  |  | 
2 | N/C(=N/OC(=O)c1ccc2nsnc2c1)c1ncon1 | 78% |  | ND(Insoluble) |  | 
3 | N/C(=N\OC(=O)Nc1ccc(Cl)cc1)c1cnccn1 | 77% |  | ND(Insoluble) |  | 
4 | Cc1cc(C(=N)NOC(=O)Nc2ccc(Cl)cc2)no1 | 61% | 656 µM |  |  | 
5 | N/C(=N\OC(=O)Nc1cccc(Cl)c1)c1ccno1 | 48% | 378 µM |  | 326 µM | 
6 | COc1ccc2c(C)nc(Nc3nc(O)cc(O)n3)nc2c1 |  |  | ND(Insoluble) |  | 70%
7 | O=C(N/N=C/c1cc(=O)[nH]c(O)n1)c1ccncc1 | 62% |  | ND(Insoluble) |  | 
